Assay results from ChEMBL document CHEMBL4014263, “Diterpenoids and Lignans from Cephalotaxus fortunei” (J Nat Prod, 2017).

Key:
[1] = test system: A549; test: Cytotoxicity against human A549 cells assessed as growth inhibition at 10 uM by SRB assay relative to control; format: functional; settings: read-out: GI
[2] = test system: HL-60; test: Cytotoxicity against human HL60 cells assessed as growth inhibition at 10 uM by MTT assay relative to control; format: functional; settings: read-out: GI
[3] = test system: A549; test: Cytotoxicity against human A549 cells by SRB assay; format: functional, cell-based
[4] = test system: HL-60; test: Cytotoxicity against human HL60 cells by MTT assay; format: functional, cell-based

Compound | inhibition of growth at 10 µM [1] | inhibition of growth at 10 µM [2] | IC50 [3] | IC50 [4]
COc1cc(C[C@@]2(O)C(=O)O[C@@H](c3ccc(O)c(OC)c3)[C@@H]2CO)ccc1O | < 50% | < 50% |  | 
C[C@@H]1[C@@H](O)[C@@H]2OC(=O)[C@]13CC[C@@H]1C[C@@H](O)C[C@H](C)C4=C1[C@@H]3[C@@H]2C4=O | < 50% | < 50% |  | 
Cc1cc(=O)cc2c3c1C[C@@H]1[C@H]4OC(=O)[C@](CC2)([C@H](C)[C@H]4O)[C@]31O | < 50% | < 50% |  | 
COc1cc([C@@H]2Oc3cc(OC)c(OC)cc3[C@H]2CO)ccc1O | < 50% | < 50% |  | 
Cc1cc(=O)cc2c3c1[C@@H](O)[C@@H]1[C@H]4OC(=O)[C@](CC2)([C@H](C)[C@H]4O)[C@H]31 | < 50% | < 50% |  | 
CC(CO)c1cc2c(cc1O)[C@@]1(C)CC[C@H](O)C(C)(C)[C@@H]1CC2=O (stereo not given in full) | < 50% | < 50% |  | 
C[C@@H]1[C@@H](O)[C@@H]2OC(=O)[C@]13CC[C@@H]1C[C@H](O)C[C@H](C)C4=C1[C@@H]3[C@@H]2C4=O | < 50% | < 50% |  | 
COc1ccc(C[C@@]2(O)C(=O)O[C@@H](c3ccc(OC)c(OC)c3)[C@@H]2CO)cc1OC | < 50% | < 50% |  | 
Cc1cc(=O)cc2c3c1C(=O)[C@@H]1[C@H]4OC(=O)[C@](CC2)([C@H](C)[C@H]4O)[C@H]31 |  |  | 1130 nM | 770 nM
COc1cccc2c1C(=O)c1c(O)c3c(c(O)c1C2=O)C[C@@](O)(C(=O)CO)C[C@@H]3O[C@H]1C[C@H](N)[C@H](O)[C@H](C)O1 [DOXORUBICIN] |  |  | 124 nM | 31 nM
